Measured values taken from paper PMC12346557, “Design, Synthesis, and Anticancer Evaluation of New Small-Molecule EGFR Inhibitors Targeting NSCLC and Breast Cancer” (International Journal of Molecular Sciences, 2025).
Read-outs that look alike come from different tables or passages of the source.

How the values were obtained:
MCF-7 cells [1] = tested on: MCF-7 cells; parameters: method as in ref 31 (1), 32 (2), 33 (3), 35 (6), 37 (8), 38 (9), 39 (10), 11 (11); settings: Figure 3; ref 31 (1), 32 (2), 33 (3), 35 (6), 37 (8), 38 (9), 39 (10), 11 (11); cited from earlier work
A549 cells [2] = tested on: A549 cells; parameters: method as in ref 33 (3), 34 (4, 5), 36 (7), 38 (9), 39 (10), 11 (11); settings: Figure 3; ref 33 (3), 34 (4, 5), 36 (7), 38 (9), 39 (10), 11 (11); cited from earlier work
EGFR = settings: cited from earlier work; for EGFR inhibition: Figure 3, concentration not given, ref 36 (7), 11 (11); for IC50: Figure 3, read-out: EGFR inhibition: IC50
MCF-7 cells [3] = assay: MTT cytotoxicity assay, MCF-7 cells; format: cell-based; settings: Homo sapiens, triplicate; for inhibition at 100 µM: MCF7, 100 µM, 72 h; for IC50: MCF7, 72 h culture, 1-100 µM
A549 cells [4] = assay: MTT cytotoxicity assay, A549 cells; format: cell-based, human; settings: triplicate; for reduction of A549 cell viability: 100 µM, 72 h; for IC50: Homo sapiens, A549, 72 h culture, 1-100 µM
PBMCs = assay: MTT cytotoxicity assay, PBMCs (healthy); format: cell-based; settings: PBMC
Experimental: (§1) A549 and MCF-7 human cancer cell lines were cultured in Dulbecco’s Modified Eagle’s Medium (DMEM) (Wako Pure Chemical Industries, Osaka, Japan) supplemented with 10% fetal bovine serum (FBS) (Equitech-Bio, Kerrville, TX, USA). Jurkat cells, derived from human leukemia, were maintained in RPMI 1640 medium (Wako Pure Chemical Industries) with 10% FBS. PBMCs (Precision Bioservices, Frederick, MD, USA) were cultured in RPMI 1640 medium supplemented with 10% human AB serum (HS) (Gemini, Woodland, CA, USA). All media were supplemented with 89 μg/mL of streptomycin (Meiji Seika Pharma, Tokyo, Japan). Cells were incubated at 37 °C in a humidified atmosphere containing 95% air and 5% CO2. Cancer cells and PBMCs were seeded into 24-well and 96-well microtiter tissue culture plates (Iwaki, Asahi Glass Co., Chiba, Japan) at densities of 4 × 10^4 cells/mL and 5 × 10^5 cells/mL, respectively, and incubated for 72 h prior to drug treatment. The optimal seeding density for cytotoxicity assays was determined through preliminary testing. […] The cellular reduction MTT (Dojindo Molecular Technologies, Kumamoto, Japan) was assessed following established protocols from the literature, with slight modifications.

Jurkat cells = assay: MTT cytotoxicity assay, Jurkat cells; format: cell-based, human; settings: for IC50: Homo sapiens, Jurkat, MTT
Experimental: as §1, with “Jurkat cells, derived from human leukemia, were maintained in RPMI 1640 medium (Wako Pure Chemical Industries) with 10% FBS. PBMCs (Precision Bioservices, Frederick, MD, USA) were cultured in RPMI 1640 medium supplemented with 10% human AB serum (HS) (Gemini, Woodland, CA, USA).” left out, “Cells were incubated at 37 °C in a humidified atmosphere containing 95% air and 5% CO2.” left out

[5] = ref 31 (1), 33 (3), 35 (6), 37 (8), 38 (9), 39 (10)

COc1ccc(C(=O)/C=C/c2cnc(-c3ccc(Cl)cc3)nc2)cc1OC [Compound 11]
IC50 (MCF-7 cells [1]): 6.7 ± 1.02 µM
IC50 (A549 cells [2]): 20.5 ± 2.7 µM
EGFR inhibition (EGFR): 46%

Cc1ccc(C2=NN(c3nc(-c4ccc(C(F)(F)F)cc4)cs3)C(c3cnc(-c4ccc(Cl)cc4)nc3)C2)cc1 (centres unmarked) [BP-7, 1-(4-(4-Trifluoromethylphenyl)thiazol-2-yl)-3-(4-methylphenyl)-5-(2-(4-chlorophenyl)pyrimidin-5-yl)-2-pyrazoline]
inhibition at 100 µM (MCF-7 cells [3]): 27 to 53%
reduction of A549 cell viability (A549 cells [4]): 33%

CCOC(=O)c1sc(N2N=C(c3ccc(Cl)cc3Cl)CC2c2ccc(OC)cc2)nc1C (centres unmarked) [Compound 4]
IC50 (A549 cells [2]): 4.22 µM
IC50 (EGFR; ref 32 (2), 34 (4, 5)): 0.0407 µM

Cc1ccc(C2=NN(c3nc(-c4ccc(F)cc4)cs3)C(c3cnc(-c4ccc(Cl)cc4)nc3)C2)cc1 (centres unmarked) [BP-3, 1-(4-(4-Fluorophenyl)thiazol-2-yl)-3-(4-methylphenyl)-5-(2-(4-chlorophenyl)pyrimidin-5-yl)-2-pyrazoline]
inhibition at 100 µM (MCF-7 cells [3]): 27 to 53%

CS(=O)(=O)CCNCc1ccc(-c2ccc3ncnc(Nc4ccc(OCc5cccc(F)c5)c(Cl)c4)c3c2)o1 [Lapatinib, lapatinib, reference compound]
IC50 (PBMCs): 11 ± 2.47 µM

COc1ccc(C2=NN(c3nc(-c4ccc(F)cc4)cs3)C(c3cnc(-c4ccc(Cl)cc4)nc3)C2)cc1 (centres unmarked) [BP-10, 1-(4-(4-Fluorophenyl)thiazol-2-yl)-3-(4-methoxyphenyl)-5-(2-(4-chlorophenyl)pyrimidin-5-yl)-2-pyrazoline]
inhibition at 100 µM (MCF-7 cells [3]): 27 to 53%
IC50 (MCF-7 cells [3]): 76 ± 9.91 µM
IC50 (Jurkat cells): > 100 µM
IC50 (A549 cells [4]): > 100 µM

COc1ccc(C2CC(c3ccc(Cl)cc3Cl)=NN2c2nc(C)c(C(=O)Nc3ccccc3)s2)cc1OC (centres unmarked) [Compound 5]
IC50 (A549 cells [2]): 2.92 µM
IC50 (EGFR; ref 32 (2), 34 (4, 5)): 0.0325 µM

COc1ccc(C2=NN(c3nc(-c4ccc(Br)cc4)cs3)C(c3cnc(-c4ccc(Cl)cc4)nc3)C2)cc1 (centres unmarked) [BP-12, 1-(4-(4-Bromophenyl)thiazol-2-yl)-3-(4-methoxyphenyl)-5-(2-(4-chlorophenyl)pyrimidin-5-yl)-2-pyrazoline]
inhibition at 100 µM (MCF-7 cells [3]): 27 to 53%

COc1ccc2nc(Cl)c(C3CC(c4ccc(C)cc4)=NN3c3nc(-c4ccc(F)cc4)cs3)cc2c1 (centres unmarked) [Compound 2]
IC50 (MCF-7 cells [1]): 0.227 µM
IC50 (EGFR; ref 32 (2), 34 (4, 5)): 0.0318 µM

Cc1ccc(C2=NN(c3nc(-c4ccc(Cl)cc4)cs3)C(c3cnc(-c4ccc(Cl)cc4)nc3)C2)cc1 (centres unmarked) [BP-4, 1-(4-(4-Chlorophenyl)thiazol-2-yl)-3-(4-methylphenyl)-5-(2-(4-chlorophenyl)pyrimidin-5-yl)-2-pyrazoline]
inhibition at 100 µM (MCF-7 cells [3]): 27 to 53%

Clc1ccc(C2CC(c3ccc4ccccc4c3)=NN2c2nc(-c3ccc(Br)cc3)cs2)cc1 (centres unmarked) [Compound 7]
IC50 (A549 cells [2]): 9.51 µM
EGFR inhibition (EGFR): 58%

COc1ccc(C2=NN(c3nc(-c4ccc(C#N)cc4)cs3)C(c3cnc(-c4ccc(Cl)cc4)nc3)C2)cc1 (centres unmarked) [BP-13, 1-(4-(4-Cyanophenyl)thiazol-2-yl)-3-(4-methoxyphenyl)-5-(2-(4-chlorophenyl)pyrimidin-5-yl)-2-pyrazoline]
inhibition at 100 µM (MCF-7 cells [3]): 27 to 53%

COc1ccc(C2=NN(c3nc(-c4ccc(C(F)(F)F)cc4)cs3)C(c3cnc(-c4ccc(Cl)cc4)nc3)C2)cc1 (centres unmarked) [BP-14, 1-(4-(4-Trifluoromethylphenyl)thiazol-2-yl)-3-(4-methoxyphenyl)-5-(2-(4-chlorophenyl)pyrimidin-5-yl)-2-pyrazoline]
inhibition at 100 µM (MCF-7 cells [3]): 27 to 53%

Cc1ccc(C2=NN(c3nc(-c4ccc(Br)cc4)cs3)C(c3cnc(-c4ccc(Cl)cc4)nc3)C2)cc1 (centres unmarked) [BP-5, 1-(4-(4-Bromophenyl)thiazol-2-yl)-3-(4-methylphenyl)-5-(2-(4-chlorophenyl)pyrimidin-5-yl)-2-pyrazoline]
inhibition at 100 µM (MCF-7 cells [3]): 27 to 53%
reduction of A549 cell viability (A549 cells [4]): 21%

Cc1ccc(C2=NN(c3nc(-c4ccc([N+](=O)[O-])cc4)cs3)C(c3cnc(-c4ccc(Cl)cc4)nc3)C2)cc1 (centres unmarked) [BP-2, 1-(4-(4-Nitrophenyl)thiazol-2-yl)-3-(4-methylphenyl)-5-(2-(4-chlorophenyl)pyrimidin-5-yl)-2-pyrazoline]
inhibition at 100 µM (MCF-7 cells [3]): 27 to 53%

Cc1ccc(C2=NN(c3nc(-c4ccccc4)cs3)C(c3cnc(-c4ccc(Cl)cc4)nc3)C2)cc1 (centres unmarked) [BP-1, 1-(4-Phenylthiazol-2-yl)-3-(4-methylphenyl)-5-(2-(4-chlorophenyl)pyrimidin-5-yl)-2-pyrazoline]
inhibition at 100 µM (MCF-7 cells [3]): 27 to 53%
IC50 (MCF-7 cells [3]): 91.6 ± 10.2 µM
IC50 (Jurkat cells): > 100 µM
IC50 (A549 cells [4]): > 100 µM

Cc1ccc(C2=NN(c3nc(-c4ccc(C#N)cc4)cs3)C(c3cnc(-c4ccc(Cl)cc4)nc3)C2)cc1 (centres unmarked) [BP-6, 1-(4-(4-Cyanophenyl)thiazol-2-yl)-3-(4-methylphenyl)-5-(2-(4-chlorophenyl)pyrimidin-5-yl)-2-pyrazoline]
inhibition at 100 µM (MCF-7 cells [3]): 27 to 53%

COc1ccc(C2=NN(C(N)=S)C(c3cnc(-c4ccc(Cl)cc4)nc3)C2)cc1 (centres unmarked) [Compound B-7, 3-(4-methoxyphenyl)-5-(2-(4-chlorophenyl)pyrimidin-5-yl)-1-thiocarbamoyl-2-pyrazoline]
inhibition at 100 µM (MCF-7 cells [3]): 39%
reduction of A549 cell viability (A549 cells [4]): 35%

COc1ccc(C2=NN(c3nc(-c4ccccc4)cs3)C(c3cnc(-c4ccc(Cl)cc4)nc3)C2)cc1 (centres unmarked) [BP-8, 1-(4-Phenylthiazol-2-yl)-3-(4-methoxyphenyl)-5-(2-(4-chlorophenyl)pyrimidin-5-yl)-2-pyrazoline]
inhibition at 100 µM (MCF-7 cells [3]): 27 to 53%

Cc1ccc(C2=NN(C(N)=S)C(c3cnc(-c4ccc(Cl)cc4)nc3)C2)cc1 (centres unmarked) [Compound B-6, 3-(4-Methylphenyl)-5-(2-(4-chlorophenyl)pyrimidin-5-yl)-1-thiocarbamoyl-2-pyrazoline]
inhibition at 100 µM (MCF-7 cells [3]): 79%
IC50 (MCF-7 cells [3]): 6.52 ± 0.97 µM
IC50 (Jurkat cells): 15.1 ± 2.85 µM
SI (Selectivity Index) (Jurkat cells; IC50 for PBMC/IC50 for Jurkat cell line): 7.49
reduction of A549 cell viability (A549 cells [4]): 44%
IC50 (A549 cells [4]): > 100 µM
IC50 (PBMCs): 113 ± 15.1 µM

COc1ccc(C2=NN(c3nc(-c4ccc([N+](=O)[O-])cc4)cs3)C(c3cnc(-c4ccc(Cl)cc4)nc3)C2)cc1 (centres unmarked) [BP-9, 1-(4-(4-Nitrophenyl)thiazol-2-yl)-3-(4-methoxyphenyl)-5-(2-(4-chlorophenyl)pyrimidin-5-yl)-2-pyrazoline]
inhibition at 100 µM (MCF-7 cells [3]): 27 to 53%

COc1ccc(C2CC(c3ccc(OC)c(OC)c3)=NN2c2nc(-c3ccccc3)cs2)cc1 (centres unmarked) [Compound 6]
IC50 (MCF-7 cells [1]): 7.21 µM
IC50 (EGFR; [5]): 0.009 µM

C=CCn1c(SCC(=O)Nc2ccc(C(=O)/C=C/c3ccc(Cl)cc3)cc2)nnc1-c1cc(-c2ccccc2)nc2ccccc12 [Compound 10]
IC50 (MCF-7 cells [1]): 3.3 ± 0.08 µM
IC50 (A549 cells [2]): 3.6 ± 0.05 µM
IC50 (EGFR; [5]): 1.3 ± 1.2 µM

N#Cc1ccc(-c2csc(N3N=C(c4ccc(N5CCOCC5)cc4)CC3c3ccc(Cl)cc3)n2)cc1 (centres unmarked) [Compound 3]
IC50 (MCF-7 cells [1]): 8.05 µM
IC50 (A549 cells [2]): 10.8 µM
IC50 (EGFR; [5]): 4.34 µM

Cn1c(=O)c2[nH]c(SCC(=O)Nc3ccc(C(=O)/C=C/c4ccc(Cl)cc4)cc3)nc2n(C)c1=O [Compound 9]
IC50 (MCF-7 cells [1]): 1.3 ± 0.9 µM
IC50 (A549 cells [2]): 1.8 ± 0.7 µM

CCc1nnc2c(Nc3ccc(C(=O)/C=C/c4ccc(OC)cc4)cc3)nc3ccccc3n12 [Compound 8]
IC50 (MCF-7 cells [1]): 8.23 ± 0.25 µM
IC50 (EGFR; [5]): 0.083 ± 0.04 µM

Cc1ccc(C2=NN(c3nc(-c4ccc(Cl)cc4)cs3)C(c3ccc(F)cc3)C2)cc1C (centres unmarked) [Compound 1]
IC50 (MCF-7 cells [1]): 0.07 µM
IC50 (EGFR; [5]): 0.06 µM
